Measured values taken from patent publication US4409210A, “Antibiotic compound” (priority 1982, dated 1983).
In brackets after ≈: the same amount, converted by molar mass.

What was measured:
Format in all cases: cell-based
[1] = tested on: Bacillus anthracis IID-115; experiment: microbe, parasite or virus in culture
[2] = tested on: Staphylococcus aureus #193; experiment: MIC, serial two-fold dilution method (aerobic); conditions: Staphylococcus aureus #193, Mueller-Hinton agar, inoculum 10^4
Proteus vulgaris A9436 = experiment: MIC, serial two-fold dilution method (aerobic); conditions: Proteus vulgaris A9436, Mueller-Hinton agar, inoculum 10^4
[3] = tested on: Pseudomonas aeruginosa D-113; experiment: MIC, serial two-fold dilution method (aerobic); conditions: Pseudomonas aeruginosa D-113, Mueller-Hinton agar, inoculum 10^4
[4] = tested on: Peptostreptococcus anaerobius A21905; experiment: MIC, serial two-fold dilution method (anaerobic); conditions: Peptostreptococcus anaerobius A21905, GAM agar medium, inoculum 10^7-10^8
[5] = tested on: Clostridium perfringens A9635; experiment: microbe, parasite or virus in culture
[6] = tested on: Bacteroides fragilis A22533; experiment: MIC, serial two-fold dilution method (anaerobic); conditions: Bacteroides fragilis A22533, GAM agar medium, inoculum 10^7-10^8
[7] = tested on: Bacteroides fragilis CUH-24; experiment: MIC, serial two-fold dilution method (anaerobic); conditions: Bacteroides fragilis CUH-24, GAM agar medium, inoculum 10^7-10^8
[8] = tested on: Neisseria meningitidis A20048; experiment: MIC, serial two-fold dilution method (aerobic); conditions: Neisseria meningitidis A20048; GC medium; inoculum 10^6 CFU/ml
[9] = tested on: Propionibacterium acnes A21953; experiment: MIC, serial two-fold dilution method (anaerobic); conditions: Propionibacterium acnes A21953, GAM agar medium, inoculum 10^7-10^8
[10] = tested on: Bacteroides fragilis A22053; experiment: MIC, serial two-fold dilution method (anaerobic); conditions: Bacteroides fragilis A22053, GAM agar medium, inoculum 10^7-10^8
[11] = tested on: Bacillus subtilis ATCC 6633; experiment: MIC, serial two-fold dilution method (aerobic); conditions: Bacillus subtilis ATCC 6633, Mueller-Hinton agar, inoculum 10^4
[12] = tested on: Staphylococcus aureus Smith; experiment: MIC, serial two-fold dilution method (aerobic); conditions: Staphylococcus aureus Smith, Mueller-Hinton agar, inoculum 10^4
[13] = tested on: Staphylococcus aureus A20239; experiment: MIC, serial two-fold dilution method (aerobic); conditions: Staphylococcus aureus A20239, Mueller-Hinton agar, inoculum 10^4
[14] = tested on: Klebsiella pneumoniae D-11; experiment: MIC, serial two-fold dilution method (aerobic); conditions: Klebsiella pneumoniae D-11, Mueller-Hinton agar, inoculum 10^4
[15] = tested on: Bacteroides fragilis CUH-9; experiment: MIC, serial two-fold dilution method (anaerobic); conditions: Bacteroides fragilis CUH-9, GAM agar medium, inoculum 10^7-10^8
[16] = tested on: Staphylococcus aureus A22421; experiment: MIC, serial two-fold dilution method (aerobic); conditions: Staphylococcus aureus A22421, Mueller-Hinton agar, inoculum 10^4
[17] = tested on: Bacteroides ovatus A22400; experiment: MIC, serial two-fold dilution method (anaerobic); conditions: Bacteroides ovatus A22400, GAM agar medium, inoculum 10^7-10^8
[18] = tested on: Staphylococcus aureus BX-1633; experiment: MIC, serial two-fold dilution method (aerobic); conditions: Staphylococcus aureus BX-1633, Mueller-Hinton agar, inoculum 10^4
[19] = tested on: Peptococcus magnas A21676; experiment: MIC, serial two-fold dilution method (anaerobic); conditions: Peptococcus magnas A21676, GAM agar medium, inoculum 10^7-10^8
Sarcina lutea PCI-1001 = experiment: MIC, serial two-fold dilution method (aerobic); conditions: Sarcina lutea PCI-1001, Mueller-Hinton agar, inoculum 10^4
[20] = tested on: Fusobacterium nucleatum A21906; experiment: MIC, serial two-fold dilution method (anaerobic); conditions: Fusobacterium nucleatum A21906, GAM agar medium, inoculum 10^7-10^8
[21] = tested on: Clostridium ramosum A21970; experiment: MIC, serial two-fold dilution method (anaerobic); conditions: Clostridium ramosum A21970, GAM agar medium, inoculum 10^7-10^8
[22] = tested on: Streptococcus pyogenes Dick; experiment: MIC, serial two-fold dilution method (aerobic); conditions: Streptococcus pyogenes Dick; GC medium; inoculum 10^6 CFU/ml
[23] = tested on: Staphylococcus aureus A9748; experiment: MIC, serial two-fold dilution method (aerobic); conditions: Staphylococcus aureus A9748, Mueller-Hinton agar, inoculum 10^4
[24] = tested on: Staphylococcus aureus A9856; experiment: MIC, serial two-fold dilution method (aerobic); conditions: Staphylococcus aureus A9856, Mueller-Hinton agar, inoculum 10^4
[25] = tested on: Streptococcus pyogenes A9604; experiment: MIC, serial two-fold dilution method (aerobic); conditions: Streptococcus pyogenes A9604; GC medium; inoculum 10^6 CFU/ml
[26] = tested on: Bacteroides fragilis A21900; experiment: MIC, serial two-fold dilution method (anaerobic); conditions: Bacteroides fragilis A21900, GAM agar medium, inoculum 10^7-10^8
S. aureus 209P = experiment: Antibiotic sensitivity, paper disc-agar diffusion method; parameters: key: S (sensitive); R (resistant); I (intermediate); conditions: nutrient agar, 2 day's incubation at 28° C., Difco discs, amount/disc per antibiotic
[27] = read-out: minimum inhibitory concentration (MIC)

## Amphomycin
[1]; Bacillus anthracis IID-115, Mueller-Hinton agar, inoculum 10^4
  minimum inhibitory concentration (MIC): 0.8 µg/mL
[2]
  minimum inhibitory concentration (MIC): 3.1 µg/mL
Proteus vulgaris A9436
  minimum inhibitory concentration (MIC): > 100 µg/mL
[3]
  minimum inhibitory concentration (MIC): > 100 µg/mL
[4]
  minimum inhibitory concentration (MIC): 3.1 µg/mL
[5]; Clostridium perfringens A9635, GAM agar medium, inoculum 10^7-10^8
  minimum inhibitory concentration (MIC): 6.3 µg/mL
[6]
  minimum inhibitory concentration (MIC): > 100 µg/mL
[7]
  minimum inhibitory concentration (MIC): > 100 µg/mL
[8]
  minimum inhibitory concentration (MIC): > 100 µg/mL
[9]
  minimum inhibitory concentration (MIC): 6.3 µg/mL
[10]
  minimum inhibitory concentration (MIC): > 100 µg/mL
[11]
  minimum inhibitory concentration (MIC): 1.6 µg/mL
[12]
  minimum inhibitory concentration (MIC): 3.1 µg/mL
[13]
  minimum inhibitory concentration (MIC): 6.3 µg/mL
[14]
  minimum inhibitory concentration (MIC): > 100 µg/mL
[15]
  minimum inhibitory concentration (MIC): > 100 µg/mL
[16]
  minimum inhibitory concentration (MIC): 3.1 µg/mL
[17]
  minimum inhibitory concentration (MIC): > 100 µg/mL
[18]
  minimum inhibitory concentration (MIC): 3.1 µg/mL
[19]
  minimum inhibitory concentration (MIC): 6.3 µg/mL
Sarcina lutea PCI-1001
  minimum inhibitory concentration (MIC): 0.8 µg/mL
[20]
  minimum inhibitory concentration (MIC): 6.3 µg/mL
[21]
  minimum inhibitory concentration (MIC): 25 µg/mL
[22]
  minimum inhibitory concentration (MIC): 12.5 µg/mL
[23]
  minimum inhibitory concentration (MIC): 6.3 µg/mL
[24]
  minimum inhibitory concentration (MIC): 3.1 µg/mL
[25]
  minimum inhibitory concentration (MIC): 12.5 µg/mL
[26]
  minimum inhibitory concentration (MIC): 25 µg/mL

## CC[C@H]1OC(=O)[C@H](C)[C@@H](O[C@H]2C[C@@](C)(OC)[C@@H](O)[C@H](C)O2)[C@H](C)[C@@H](O[C@@H]2O[C@H](C)C[C@H](N(C)C)[C@H]2O)[C@](C)(O)C[C@@H](C)C(=O)[C@H](C)[C@@H](O)[C@]1(C)O [Erythromycin]
[1]; Bacillus anthracis, IID115, read-out: minimum inhibitory concentration (MIC)
  MIC: 0.4 µg/mL (≈ 0.545 µM)
[2]; [27]
  MIC: 0.4 µg/mL (≈ 0.545 µM)
Proteus vulgaris A9436; [27]
  MIC: 100 µg/mL (≈ 136 µM)
[3]; D113, read-out: minimum inhibitory concentration (MIC)
  MIC: 100 µg/mL (≈ 136 µM)
S. aureus 209P
  Sensitivity S. aureus 209P: S
[4]; [27]
  MIC: 0.8 µg/mL (≈ 1.09 µM)
[5]; Clostridium perfringens, A9635, read-out: minimum inhibitory concentration (MIC)
  MIC: 0.8 µg/mL (≈ 1.09 µM)
[6]; [27]
  MIC: 0.4 µg/mL (≈ 0.545 µM)
[7]; CUH24, read-out: minimum inhibitory concentration (MIC)
  MIC: > 100 µg/mL
[9]; Cutibacterium acnes, read-out: minimum inhibitory concentration (MIC)
  MIC: 0.8 µg/mL (≈ 1.09 µM)
[10]; [27]
  MIC: 3.1 µg/mL (≈ 4.22 µM)
[11]; ATCC6633, read-out: minimum inhibitory concentration (MIC)
  MIC: < 0.05 µg/mL
[12]; [27]
  MIC: 0.2 µg/mL (≈ 0.273 µM)
[13]; [27]
  MIC: 12.5 µg/mL (≈ 17 µM)
[14]; D11, read-out: minimum inhibitory concentration (MIC)
  MIC: 100 µg/mL (≈ 136 µM)
[15]; CUH9, read-out: minimum inhibitory concentration (MIC)
  MIC: 6.3 µg/mL (≈ 8.58 µM)
[16]; [27]
  MIC: 6.3 µg/mL (≈ 8.58 µM)
[17]; [27]
  MIC: > 100 µg/mL
[18]; BX1633, read-out: minimum inhibitory concentration (MIC)
  MIC: 0.2 µg/mL (≈ 0.273 µM)
[19]; [27]
  MIC: 0.8 µg/mL (≈ 1.09 µM)
Sarcina lutea PCI-1001; Micrococcus luteus, PCI1001, read-out: minimum inhibitory concentration (MIC)
  MIC: < 0.05 µg/mL
[20]; [27]
  MIC: 1.6 µg/mL (≈ 2.18 µM)
[21]; Thomasclavelia ramosa, read-out: minimum inhibitory concentration (MIC)
  MIC: 0.1 µg/mL (≈ 0.136 µM)
[23]; [27]
  MIC: 0.4 µg/mL (≈ 0.545 µM)
[24]; [27]
  MIC: 0.2 µg/mL (≈ 0.273 µM)
[26]; [27]
  MIC: 0.4 µg/mL (≈ 0.545 µM)
